Data taken from patent US7235258B1, “Sustained-release formulations for treating CNS-mediated disorders” (NPS Pharmaceuticals, Inc., priority 1999, dated 2007).
Read-outs that look alike come from different tables or passages of the source.

What was measured:
[1] = Water solubility of the drug (statement); format: physicochemical
[2] = Safety and tolerability in the ascending single oral dose study; format: in vivo, human
Method: (§1) Isovaleramide (NPS 1776) was orally administered in a double-blind, placebo-controlled, ascending single dose study conducted in two groups of healthy young male Caucasian subjects and one group of healthy young female Caucasian subjects to investigate the safety, tolerability, pharmacodynamics and pharmacokinetics of the drug. Various amounts of the drug were dissolved in 250 mL of a flavored soft drink (powdered soft drink diluted in mineral water) and administered as an oral solution.
The most common adverse events were polyuria and headache. There were no dose-related trends in the incidence or severity of adverse events, or any difference in the incidence or severity of adverse events reported. Similar results were obtained in a 1200 mg dose level female group administered the drug for gender comparison.

[3] = Ascending single oral dose pharmacokinetic study of isovaleramide (oral solution) in healthy subjects; format: in vivo, human; conditions: for half-life / Cmax / CL/F: human; for CL/F: arithmetic mean
Method: as §1
Isovaleramide administered orally in the absence of a sustained-release formulation was rapidly absorbed and rapidly eliminated in human subjects (Table 1). Systemic exposure to the drug increased with increasing oral doses from 100 to 1600 mg in male subjects.

- water solubility [1]: very water soluble
- time at which blood level falls below the effective concentration ([3]; 1200 mg dose, assumed effective target concentration about 10 μg/mL): about 5 hours
- half-life ([3]; female, plasma, females, oral, 1200 mg, read-out: t½ (converted)): 113 min
- Cmax ([3]; blood, oral, 1200 mg, read-out: initial maximum blood concentration (Cmax)): ~27000 ng/mL
- half-life ([3]; plasma, humans, oral, no sustained-release formulation, doses 100 to 1600 mg, read-out: half-life (converted)): ~150 min
- CL/F ([3]; plasma, male humans, oral, 100 mg): 3.83 mL/min/kg
- Cmax ([3]; plasma, male humans, oral, 100 mg, geometric mean, read-out: Cmax): 1510 ng/mL
- half-life ([3]; plasma, male humans, oral, 100 mg, harmonic mean, read-out: t1/2 (converted)): 162 min
- CL/F ([3]; plasma, male humans, oral, 200 mg): 3.08 mL/min/kg
- Cmax ([3]; plasma, male humans, oral, 200 mg, geometric mean, read-out: Cmax): 3320 ng/mL
- half-life ([3]; plasma, male humans, oral, 200 mg, harmonic mean, read-out: t1/2 (converted)): 157 min
- CL/F ([3]; plasma, male humans, oral, 400 mg): 3.13 mL/min/kg
- Cmax ([3]; plasma, male humans, oral, 400 mg, geometric mean, read-out: Cmax): 6840 ng/mL
- half-life ([3]; plasma, male humans, oral, 400 mg, harmonic mean, read-out: t1/2 (converted)): 150 min
- CL/F ([3]; plasma, male humans, oral, 800 mg): 2.73 mL/min/kg
- Cmax ([3]; plasma, male humans, oral, 800 mg, geometric mean, read-out: Cmax): 16400 ng/mL
- half-life ([3]; plasma, male humans, oral, 800 mg, harmonic mean, read-out: t1/2 (converted)): 141 min
- CL/F ([3]; plasma, male humans, oral, 1200 mg): 2.47 mL/min/kg
- Cmax ([3]; plasma, male humans, oral, 1200 mg, geometric mean, read-out: Cmax): 27900 ng/mL
- half-life ([3]; plasma, male humans, oral, 1200 mg, harmonic mean, read-out: t1/2 (converted)): 146 min
- CL/F ([3]; plasma, male humans, oral, 1600 mg): 2.17 mL/min/kg
- Cmax ([3]; plasma, male humans, oral, 1600 mg, geometric mean, read-out: Cmax): 39300 ng/mL
- half-life ([3]; plasma, male humans, oral, 1600 mg, harmonic mean, read-out: t1/2 (converted)): 159 min
- time to maximum drug concentration ([3]; humans, oral, all doses): less than one hour
- time to maximum drug concentration, typical ([3]; humans, oral, all doses): about 30 minutes
- increase in Cmax and AUC relative to increase in dose level ([3]; male subjects, oral, 100 to 1600 mg): slightly greater than proportional
- change in drug concentration in the blood over a 12-hour period ([3]; single dose, for a 2.5-hour half-life): about 10 fold
SMILES: CC(C)CC(N)=O [Isovaleramide]
- changes in vital signs, 12-lead ECG, clinical laboratory assessments or physical examination ([2]; all dose levels): no clinically significant drug-or dose-related changes
- tolerability ([2]; oral 100 to 1600 mg, healthy male subjects): well tolerated
- severity of drug-related adverse events ([2]; oral 100 to 1600 mg, few events, most common polyuria and headache): all were mild in severity
